Structures are written as SMILES. Where a SMILES comes first, the peptide text is derived from it. Bridges are numbered along the chain shown (N, C = ends). Roman numbers before positions name the chains, in order. [ ]: non-standard residue; d: D form. The star is where a group is joined. 5TAMRA = CN(C)c1ccc2c(c1)Oc1cc(N(C)C)ccc1C21OC(=O)c2cc(C(=O)*)ccc21; Cha = N[C@@H](CC1CCCCC1)C(=O)O

This data set can be described thus: Drug localization in mitochondria of human HeLa cells at EC50 incubated for 3 hrs by fluorescence based assay. Format: ADME.
With `CC(=O)N[C@@H](CC(C)C)C(=O)N[C@H]1CSSC[C@@H](C(=O)N[C@@H](CCCNC(=N)N)C(N)=O)NC(=O)[C@H](CC2CCCCC2)NC(=O)[C@H](CCCNC(=N)N)NC(=O)[C@H](CCCNC(=N)N)NC(=O)[C@H](CC2CCCCC2)NC(=O)[C@H](CC2CCCCC2)NC(=O)[C@H](CCCNC(=N)N)NC(=O)[C@@H](NC(=O)[C@H](CC(C)C)NC(=O)c2ccc3c(c2)C(=O)OC32c3ccc(N(C)C)cc3Oc3cc(N(C)C)ccc32)CSSC[C@@H](C(=O)N[C@@H](CCCNC(=N)N)C(N)=O)NC(=O)[C@H](CC2CCCCC2)NC(=O)[C@H](CCCNC(=N)N)NC(=O)[C@H](CCCNC(=N)N)NC(=O)[C@H](CC2CCCCC2)NC(=O)[C@H](CC2CCCCC2)NC(=O)[C@H](CCCNC(=N)N)NC1=O` (I: Ac-LCR[Cha][Cha]RR[Cha]CR-NH2 / II: 5TAMRA-LCR[Cha][Cha]RR[Cha]CR-NH2; disulfide I:2-II:9, I:9-II:2), the Drug uptake is reported as 53%.

In the case of `CC(=O)N[C@@H](CC1CCCCC1)C(=O)N[C@H]1CSSC[C@@H](C(=O)N[C@@H](CCCNC(=N)N)C(N)=O)NC(=O)[C@H](CC(C)C)NC(=O)[C@H](CCCNC(=N)N)NC(=O)[C@H](CCCNC(=N)N)NC(=O)[C@H](CC(C)C)NC(=O)[C@H](CC2CCCCC2)NC(=O)[C@H](CCCNC(=N)N)NC(=O)[C@@H](NC(=O)[C@H](CC2CCCCC2)NC(=O)c2ccc3c(c2)C(=O)OC32c3ccc(N(C)C)cc3Oc3cc(N(C)C)ccc32)CSSC[C@@H](C(=O)N[C@@H](CCCNC(=N)N)C(N)=O)NC(=O)[C@H](CC(C)C)NC(=O)[C@H](CCCNC(=N)N)NC(=O)[C@H](CCCNC(=N)N)NC(=O)[C@H](CC(C)C)NC(=O)[C@H](CC2CCCCC2)NC(=O)[C@H](CCCNC(=N)N)NC1=O` (I: Ac-[Cha]CR[Cha]LRRLCR-NH2 / II: 5TAMRA-[Cha]CR[Cha]LRRLCR-NH2; disulfide I:2-II:9, I:9-II:2), the Drug uptake came out at 53%.

The molecule `CC(=O)N[C@@H](CC1CCCCC1)C(=O)N[C@H]1CSSC[C@@H](C(=O)N[C@@H](CCCNC(=N)N)C(N)=O)NC(=O)[C@H](CC(C)C)NC(=O)[C@H](CCCNC(=N)N)NC(=O)[C@H](CCCNC(=N)N)NC(=O)[C@H](CC2CCCCC2)NC(=O)[C@H](CC2CCCCC2)NC(=O)[C@H](CCCNC(=N)N)NC(=O)[C@@H](NC(=O)[C@H](CC2CCCCC2)NC(=O)c2ccc3c(c2)C(=O)OC32c3ccc(N(C)C)cc3Oc3cc(N(C)C)ccc32)CSSC[C@@H](C(=O)N[C@@H](CCCNC(=N)N)C(N)=O)NC(=O)[C@H](CC(C)C)NC(=O)[C@H](CCCNC(=N)N)NC(=O)[C@H](CCCNC(=N)N)NC(=O)[C@H](CC2CCCCC2)NC(=O)[C@H](CC2CCCCC2)NC(=O)[C@H](CCCNC(=N)N)NC1=O` (I: Ac-[Cha]CR[Cha][Cha]RRLCR-NH2 / II: 5TAMRA-[Cha]CR[Cha][Cha]RRLCR-NH2; disulfide I:2-II:9, I:9-II:2) showed a Drug uptake of 53%.

Molecule `CC(=O)N[C@@H](CC(C)C)C(=O)N[C@H]1CSSC[C@@H](C(=O)N[C@@H](CCCNC(=N)N)C(N)=O)NC(=O)[C@H](CC(C)C)NC(=O)[C@H](CCCNC(=N)N)NC(=O)[C@H](CCCNC(=N)N)NC(=O)[C@H](CC2CCCCC2)NC(=O)[C@H](CC(C)C)NC(=O)[C@H](CCCNC(=N)N)NC(=O)[C@@H](NC(=O)[C@H](CC(C)C)NC(=O)c2ccc3c(c2)C(=O)OC32c3ccc(N(C)C)cc3Oc3cc(N(C)C)ccc32)CSSC[C@@H](C(=O)N[C@@H](CCCNC(=N)N)C(N)=O)NC(=O)[C@H](CC(C)C)NC(=O)[C@H](CCCNC(=N)N)NC(=O)[C@H](CCCNC(=N)N)NC(=O)[C@H](CC2CCCCC2)NC(=O)[C@H](CC(C)C)NC(=O)[C@H](CCCNC(=N)N)NC1=O` (I: Ac-LCRL[Cha]RRLCR-NH2 / II: 5TAMRA-LCRL[Cha]RRLCR-NH2; disulfide I:2-II:9, I:9-II:2) showed a Drug uptake of 53%.

For `CC(=O)N[C@@H](CC(C)C)C(=O)N[C@H]1CSSC[C@@H](C(=O)N[C@@H](CCCNC(=N)N)C(N)=O)NC(=O)[C@H](CC2CCCCC2)NC(=O)[C@H](CCCNC(=N)N)NC(=O)[C@H](CCCNC(=N)N)NC(=O)[C@H](CC(C)C)NC(=O)[C@H](CC(C)C)NC(=O)[C@H](CCCNC(=N)N)NC(=O)[C@@H](NC(=O)[C@H](CC(C)C)NC(=O)c2ccc3c(c2)C(=O)OC32c3ccc(N(C)C)cc3Oc3cc(N(C)C)ccc32)CSSC[C@@H](C(=O)N[C@@H](CCCNC(=N)N)C(N)=O)NC(=O)[C@H](CC2CCCCC2)NC(=O)[C@H](CCCNC(=N)N)NC(=O)[C@H](CCCNC(=N)N)NC(=O)[C@H](CC(C)C)NC(=O)[C@H](CC(C)C)NC(=O)[C@H](CCCNC(=N)N)NC1=O` (I: Ac-LCRLLRR[Cha]CR-NH2 / II: 5TAMRA-LCRLLRR[Cha]CR-NH2; disulfide I:2-II:9, I:9-II:2), the Drug uptake worked out at 53%.

`CC(=O)N[C@@H](CC1CCCCC1)C(=O)N[C@H]1CSSC[C@@H](C(=O)N[C@@H](CCCNC(=N)N)C(N)=O)NC(=O)[C@H](CC2CCCCC2)NC(=O)[C@H](CCCNC(=N)N)NC(=O)[C@H](CCCNC(=N)N)NC(=O)[C@H](CC(C)C)NC(=O)[C@H](CC2CCCCC2)NC(=O)[C@H](CCCNC(=N)N)NC(=O)[C@@H](NC(=O)[C@H](CC2CCCCC2)NC(=O)c2ccc3c(c2)C(=O)OC32c3ccc(N(C)C)cc3Oc3cc(N(C)C)ccc32)CSSC[C@@H](C(=O)N[C@@H](CCCNC(=N)N)C(N)=O)NC(=O)[C@H](CC2CCCCC2)NC(=O)[C@H](CCCNC(=N)N)NC(=O)[C@H](CCCNC(=N)N)NC(=O)[C@H](CC(C)C)NC(=O)[C@H](CC2CCCCC2)NC(=O)[C@H](CCCNC(=N)N)NC1=O` (I: Ac-[Cha]CR[Cha]LRR[Cha]CR-NH2 / II: 5TAMRA-[Cha]CR[Cha]LRR[Cha]CR-NH2; disulfide I:2-II:9, I:9-II:2): the Drug uptake amounted to 53%.

The molecule `CC(=O)N[C@@H](CC(C)C)C(=O)N[C@H]1CSSC[C@@H](C(=O)N[C@@H](CCCNC(=N)N)C(N)=O)NC(=O)[C@H](CC2CCCCC2)NC(=O)[C@H](CCCNC(=N)N)NC(=O)[C@H](CCCNC(=N)N)NC(=O)[C@H](CC(C)C)NC(=O)[C@H](CC2CCCCC2)NC(=O)[C@H](CCCNC(=N)N)NC(=O)[C@@H](NC(=O)[C@H](CC(C)C)NC(=O)c2ccc3c(c2)C(=O)OC32c3ccc(N(C)C)cc3Oc3cc(N(C)C)ccc32)CSSC[C@@H](C(=O)N[C@@H](CCCNC(=N)N)C(N)=O)NC(=O)[C@H](CC2CCCCC2)NC(=O)[C@H](CCCNC(=N)N)NC(=O)[C@H](CCCNC(=N)N)NC(=O)[C@H](CC(C)C)NC(=O)[C@H](CC2CCCCC2)NC(=O)[C@H](CCCNC(=N)N)NC1=O` (I: Ac-LCR[Cha]LRR[Cha]CR-NH2 / II: 5TAMRA-LCR[Cha]LRR[Cha]CR-NH2; disulfide I:2-II:9, I:9-II:2) showed a Drug uptake of 53%.

Take `CC(=O)N[C@@H](CC1CCCCC1)C(=O)N[C@H]1CSSC[C@@H](C(=O)N[C@@H](CCCNC(=N)N)C(N)=O)NC(=O)[C@H](CC2CCCCC2)NC(=O)[C@H](CCCNC(=N)N)NC(=O)[C@H](CCCNC(=N)N)NC(=O)[C@H](CC2CCCCC2)NC(=O)[C@H](CC2CCCCC2)NC(=O)[C@H](CCCNC(=N)N)NC(=O)[C@@H](NC(=O)[C@H](CC2CCCCC2)NC(=O)c2ccc3c(c2)C(=O)OC32c3ccc(N(C)C)cc3Oc3cc(N(C)C)ccc32)CSSC[C@@H](C(=O)N[C@@H](CCCNC(=N)N)C(N)=O)NC(=O)[C@H](CC2CCCCC2)NC(=O)[C@H](CCCNC(=N)N)NC(=O)[C@H](CCCNC(=N)N)NC(=O)[C@H](CC2CCCCC2)NC(=O)[C@H](CC2CCCCC2)NC(=O)[C@H](CCCNC(=N)N)NC1=O` (I: Ac-[Cha]CR[Cha][Cha]RR[Cha]CR-NH2 / II: 5TAMRA-[Cha]CR[Cha][Cha]RR[Cha]CR-NH2; disulfide I:2-II:9, I:9-II:2): the Drug uptake worked out at 53%.

In turn, `CC(=O)N[C@@H](CC1CCCCC1)C(=O)N[C@H]1CSSC[C@@H](C(=O)N[C@@H](CCCNC(=N)N)C(N)=O)NC(=O)[C@H](CC(C)C)NC(=O)[C@H](CCCNC(=N)N)NC(=O)[C@H](CCCNC(=N)N)NC(=O)[C@H](CC(C)C)NC(=O)[C@H](CC(C)C)NC(=O)[C@H](CCCNC(=N)N)NC(=O)[C@@H](NC(=O)[C@H](CC2CCCCC2)NC(=O)c2ccc3c(c2)C(=O)OC32c3ccc(N(C)C)cc3Oc3cc(N(C)C)ccc32)CSSC[C@@H](C(=O)N[C@@H](CCCNC(=N)N)C(N)=O)NC(=O)[C@H](CC(C)C)NC(=O)[C@H](CCCNC(=N)N)NC(=O)[C@H](CCCNC(=N)N)NC(=O)[C@H](CC(C)C)NC(=O)[C@H](CC(C)C)NC(=O)[C@H](CCCNC(=N)N)NC1=O` (I: Ac-[Cha]CRLLRRLCR-NH2 / II: 5TAMRA-[Cha]CRLLRRLCR-NH2; disulfide I:2-II:9, I:9-II:2) yielded a Drug uptake of 53%.

In turn, `CC(=O)N[C@@H](CC(C)C)C(=O)N[C@H]1CSSC[C@@H](C(=O)N[C@@H](CCCNC(=N)N)C(N)=O)NC(=O)[C@H](CC(C)C)NC(=O)[C@H](CCCNC(=N)N)NC(=O)[C@H](CCCNC(=N)N)NC(=O)[C@H](CC2CCCCC2)NC(=O)[C@H](CC2CCCCC2)NC(=O)[C@H](CCCNC(=N)N)NC(=O)[C@@H](NC(=O)[C@H](CC(C)C)NC(=O)c2ccc3c(c2)C(=O)OC32c3ccc(N(C)C)cc3Oc3cc(N(C)C)ccc32)CSSC[C@@H](C(=O)N[C@@H](CCCNC(=N)N)C(N)=O)NC(=O)[C@H](CC(C)C)NC(=O)[C@H](CCCNC(=N)N)NC(=O)[C@H](CCCNC(=N)N)NC(=O)[C@H](CC2CCCCC2)NC(=O)[C@H](CC2CCCCC2)NC(=O)[C@H](CCCNC(=N)N)NC1=O` (I: Ac-LCR[Cha][Cha]RRLCR-NH2 / II: 5TAMRA-LCR[Cha][Cha]RRLCR-NH2; disulfide I:2-II:9, I:9-II:2) had a Drug uptake of 53%.

With `CC(=O)N[C@@H](CC(C)C)C(=O)N[C@H]1CSSC[C@@H](C(=O)N[C@@H](CCCNC(=N)N)C(N)=O)NC(=O)[C@H](CC2CCCCC2)NC(=O)[C@H](CCCNC(=N)N)NC(=O)[C@H](CCCNC(=N)N)NC(=O)[C@H](CC2CCCCC2)NC(=O)[C@H](CC(C)C)NC(=O)[C@H](CCCNC(=N)N)NC(=O)[C@@H](NC(=O)[C@H](CC(C)C)NC(=O)c2ccc3c(c2)C(=O)OC32c3ccc(N(C)C)cc3Oc3cc(N(C)C)ccc32)CSSC[C@@H](C(=O)N[C@@H](CCCNC(=N)N)C(N)=O)NC(=O)[C@H](CC2CCCCC2)NC(=O)[C@H](CCCNC(=N)N)NC(=O)[C@H](CCCNC(=N)N)NC(=O)[C@H](CC2CCCCC2)NC(=O)[C@H](CC(C)C)NC(=O)[C@H](CCCNC(=N)N)NC1=O` (I: Ac-LCRL[Cha]RR[Cha]CR-NH2 / II: 5TAMRA-LCRL[Cha]RR[Cha]CR-NH2; disulfide I:2-II:9, I:9-II:2), the Drug uptake came out at 53%.

Values taken from ChEMBL document CHEMBL5634162, “Cyclohexylalanine-Containing α-Helical Amphipathic Peptide Targets Cardiolipin, Rescuing Mitochondrial Dysfunction in Kidney Injury” (J Med Chem, 2024).
